Test results as given in PMC9062259, “Mammalian Ddi2 is a shuttling factor containing a retroviral protease domain that influences binding of ubiquitylated proteins and proteasomal degradation” (The Journal of Biological Chemistry, 2022).

T1: Ddi2 (Homo sapiens, UniProt Q5TDH0)
T1 construct: His6-Ddi2
T1 sequence (Q5TDH0 1-399): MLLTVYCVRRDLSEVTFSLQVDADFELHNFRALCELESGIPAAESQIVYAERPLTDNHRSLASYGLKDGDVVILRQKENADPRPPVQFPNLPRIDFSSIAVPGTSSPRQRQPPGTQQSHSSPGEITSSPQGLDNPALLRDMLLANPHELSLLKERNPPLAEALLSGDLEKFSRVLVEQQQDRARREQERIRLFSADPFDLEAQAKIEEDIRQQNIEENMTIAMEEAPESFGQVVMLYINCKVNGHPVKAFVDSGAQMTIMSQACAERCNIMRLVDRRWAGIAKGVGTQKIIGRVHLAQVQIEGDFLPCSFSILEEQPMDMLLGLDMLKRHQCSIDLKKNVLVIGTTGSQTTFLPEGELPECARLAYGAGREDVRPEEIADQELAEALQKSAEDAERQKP


Tests used:
Ddi2 = molecular target: T1, Ddi2; test: Inhibition of cleavage of fluorescently labeled ubiquitylated NeD-sfGFP by purified His6-Ddi2 (SDS-PAGE, fluorescence imaging); assay type: biochemical
[1] = molecular target: the molecule itself; test: SEC; His-Ddi2 after Ni-NTA on a Superdex 16/60 column in 25 mM Hepes-KOH pH 8, 40 mM potassium acetate, 10% glycerol, 1 mM DTT

Molecule | EC50 (Ddi2) [µM] | binding result [1]
Cc1c(O)cccc1C(=O)N[C@@H](CSc1ccccc1)[C@H](O)CN1C[C@H]2CCCC[C@H]2C[C@H]1C(=O)NC(C)(C)C [nelfinavir] | ~40 | –
His6-Ddi2 (natural protein, human, UniProt Q5TDH0 1-399, looked up, Ddi2, human, from a pET16b plasmid (gift from Klara Saskova); Collected from gel filtration at a molecular weight consistent with dimerization; also called His-Ddi2; purified Ddi2; source: E. coli BL21 RIL (DE3) Codon Plus, purified (Ni-NTA, Superdex gel filtration)) MLLTVYCVRRDLSEVTFSLQVDADFELHNFRALCELESGIPAAESQIVYAERPLTDNHRSLASYGLKDGDVVILRQKENADPRPPVQFPNLPRIDFSSIAVPGTSSPRQRQPPGTQQSHSSPGEITSSPQGLDNPALLRDMLLANPHELSLLKERNPPLAEALLSGDLEKFSRVLVEQQQDRARREQERIRLFSADPFDLEAQAKIEEDIRQQNIEENMTIAMEEAPESFGQVVMLYINCKVNGHPVKAFVDSGAQMTIMSQACAERCNIMRLVDRRWAGIAKGVGTQKIIGRVHLAQVQIEGDFLPCSFSILEEQPMDMLLGLDMLKRHQCSIDLKKNVLVIGTTGSQTTFLPEGELPECARLAYGAGREDVRPEEIADQELAEALQKSAEDAERQKP | – | binds
